Source: ChEMBL document CHEMBL1201862, “PubChem BioAssay data set” (2004)
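Assay format: 96-well plates, 48-hour exposure. Here, GI50 denotes the concentration required for 50% inhibition of growth.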 Active and inactive are the calls of the source. Cut-off read from the data, not from the text of the source: active = GI50 up to about 1.1 µM and inactive = higher.

Key:
Experiment in all cases: inhibition of tumour cell growth, NCI panel, 48 h
[1] = tested on: CAKI-1
[2] = tested on: COLO 205
[3] = tested on: HCC 2998
[4] = tested on: HCT-116
[5] = tested on: HOP-62
[6] = tested on: HOP-92
[7] = tested on: K562
[8] = tested on: LOX IMVI
[9] = tested on: M14
[10] = tested on: MOLT-4
[11] = tested on: Malme-3M
[12] = tested on: NCI-H226
[13] = tested on: OVCAR-5
[14] = tested on: RXF 393
[15] = tested on: SK-OV-3
[16] = tested on: SN12C
[17] = tested on: UO-31
[18] = tested on: A498
[19] = tested on: SK-MEL-5

Measured: GI50

O=C(O/N=C1\CCCC\C1=C/c1ccccc1)c1ccc([N+](=O)[O-])cc1
inactive: [1] > 100 µM | [2] > 100 µM | [3] > 100 µM | [4] > 100 µM | [5] > 100 µM | [6] > 100 µM | [7] 74.1 µM | [8] > 100 µM | [9] > 100 µM | [10] > 100 µM | [11] > 100 µM | [12] > 100 µM | [13] > 100 µM | [14] > 100 µM | [15] > 100 µM | [16] > 100 µM | [17] 98.4 µM

N#CNC(=N)NC(=O)/C=C/C=C/c1ccc(Cl)cc1
inactive: [18] > 100 µM | [1] > 100 µM | [2] > 100 µM | [4] > 100 µM | [5] > 100 µM | [6] > 100 µM | [7] > 100 µM | [8] > 100 µM | [9] > 100 µM | [10] > 100 µM | [11] 39.4 µM | [12] > 100 µM | [13] > 100 µM | [14] 41.6 µM | [19] 33.3 µM | [15] > 100 µM | [16] > 100 µM | [17] > 100 µM

CCCCCCCCCCCCCCC(O)C1CCC(C(O)CCC(O)CCCCCC(O)CC2=CC(C)OC2=O)O1 (stereo not drawn)
active: [7] 0.0123 µM | [10] 0.64 µM | [12] 1.09 µM | [19] 0.0131 µM | [17] 0.0604 µM
inactive: [18] 4.45 µM | [1] 8.13 µM | [2] 2.43 µM | [3] 2.51 µM | [4] 1.36 µM | [5] 1.55 µM | [6] 2.06 µM | [8] 1.18 µM | [9] 6.3 µM | [11] 1.58 µM | [13] 4.4 µM | [15] 4.73 µM | [16] 1.24 µM

CC(C)(CN1CCCCC1)C(=O)/C=C/c1ccccc1
inactive: [18] 18.5 µM | [1] 17.3 µM | [2] 16.4 µM | [3] 14.7 µM | [4] 15.3 µM | [5] 24.7 µM | [7] 3.4 µM | [8] 18.8 µM | [9] 18.7 µM | [10] 10.3 µM | [11] 14.6 µM | [12] 29 µM | [13] 19.9 µM | [14] 11.9 µM | [19] 11.9 µM | [15] 21.3 µM | [16] 15.4 µM | [17] 15.2 µM

O=C(C/C(CCC(=O)N(Cc1ccccc1)Cc1ccccc1)=N/Nc1ccc([N+](=O)[O-])cc1[N+](=O)[O-])c1ccccc1
inactive: [2] > 100 µM | [3] 74.5 µM | [4] > 100 µM | [5] 70.8 µM | [6] > 100 µM | [7] 28.1 µM | [8] 25.4 µM | [9] 68.9 µM | [10] 22.8 µM | [11] > 100 µM | [12] > 100 µM | [13] > 100 µM | [15] > 100 µM | [17] 35.2 µM

OCC1=CC(NC2CC(CO)C(O)C(O)C2O)C(O)C(O)C1O (stereo not drawn)
inactive: [2] > 100 µM | [4] > 100 µM | [5] > 100 µM | [7] > 100 µM | [8] > 100 µM | [9] > 100 µM | [10] > 100 µM | [11] > 100 µM | [12] 94.4 µM | [14] > 100 µM | [15] > 100 µM | [16] > 100 µM | [17] > 100 µM
